Experimental data: patent US20230414626A1, “INDUCTION OF FERROPTOSIS FOR CANCER THERAPY” (Memorial Sloan Kettering Cancer Center, priority 2020, published 2023)

Tests used:
[1] = test system: SREBP1 (SREBP1m); assay: Western blot of mature SREBP1; type: cell-based, human; settings: RSL3-resistant cancer cells (BT474, MDA-MB-453, MCF7); CCI-779 0.5 μM
Description: FIG. 4 A-F. mTORC1 activation suppresses ferroptosis by upregulating SREBP1. (A) BT474 and MDA-MB-453 cells were treated as indicated. RSL3, 0.5 μM; CCI-779, 0.5 μM. Cell lysates were collected after 8 h and 24 h of treatment for BT474 cells and MDA-MB-453 cells, respectively, for western blot detecting […], total S6K, unprocessed SREBP1 (SREBP1(p)) and processed, mature SREBP1 (SREBP1(m)). (B) Cells were treated as indicated. RSL3, 0.5 μM for BT474 cells and 1 μM for MDA-MB-453 cells; Fer-1, 1 μM. (C) Cells were treated as in panel B. Lipid peroxidation was measured. (D) 3D spheroids derived from BT474 cells harboring control or SREBF1 sgRNA were treated as indicated. CCI-779, 0.5 μM; RSL3, 0.5 μM; Fer-1, 1 μM. Top, cell death stained by Sytox Green (scale bar, 100 μm). Bottom, cell viability. (E) SREBP1m was overexpressed in BT474 cells and determined by western blot. Cells were treated as indicated. RSL3, 0.5 μM; CCI-779, 0.5 μM. Cell death was measured (bottom panel). (F) 3D spheroids derived from BT474 cells were treated as indicated. RSL3, 0.5 μM; CCI-779, 0.5 μM; Fer-1, 1 μM. Top, cell death stained by Sytox Green (scale bar, 100 m). […]
FIG. 9 A-F. SREBP1 protects cells from ferroptosis. […] (C) Efficiency of SREBF1 Knockout in BT474, MDA-MB-453, and MCF7 cells was monitored by western blot. […] (F) SREBP1m was overexpressed in MCF7, MDA-MB-453 and A549 cells and determined by western blot. […]

[2] = test system: NRF2; assay: Western blot of NRF2; type: cell-based, human; settings: BT474 cells, 8 h; RSL3 0.5 μM; Torin 1 μM
Description: FIG. 3 A-E. NRF2 is not the major mediator of the ferroptosis-suppressing activity of mTORC1. (A) BT474 cells were treated as indicated for 8 h. RSL3, 0.5 μM; Torin, 1 μM. Western blot was performed to measure […], total S6K and NRF2. (B) NRF2 was depleted by CRISPR/Cas9 technology in HT1080 cells. NRF2 level was measured by western blot. (C) Control or NRF2-depleted cells were treated as indicated. Erastin, 0.5 μM; RSL3, 25 nM. (D) HepG2 cells with or without NRF2 depletion were treated with cysteine starvation with or without CCI-779 (0.5 μM) as indicated. Sytox Green were added after 48 h for cell death staining (scale bar, 100 m). (E) PC-3 cells with or without NRF2 depletion were treated with cysteine starvation with or without CCI-779 (0.5 μM) as indicated. Sytox Green were added after 48 h for cell death staining (scale bar, 100 m).
Cell lysates were resolved on SDS-PAGE gels and transferred to a nitrocellulose membranes. The membranes were incubated in 5% skim milk for 1 hour at room temperature and then incubated with primary antibodies diluted in blocking buffer at 4° C. overnight. […]

In the case of `CO[C@H]1C[C@@H]2CC[C@@H](C)[C@@](O)(O2)C(=O)C(=O)N2CCCC[C@H]2C(=O)O[C@H]([C@H](C)C[C@@H]2CC[C@@H](OC(=O)C(C)(CO)CO)[C@H](OC)C2)CC(=O)[C@H](C)/C=C(\C)[C@@H](O)[C@@H](OC)C(=O)[C@H](C)C[C@H](C)/C=C/C=C/C=C/1C` [CCI-779, Temsirolimus], the “level of the mature form of SREBP1 (SREBP1m)” value [1] is reported as “decreased”.

`CCC(=O)N1CCN(c2ccc(-n3c(=O)ccc4cnc5ccc(-c6cnc7ccccc7c6)cc5c43)cc2C(F)(F)F)CC1` [Torin] was tested, and the “RSL3-induced NRF2 accumulation” value [2] was “ablated”.
